Assay results taken from patent US8158621B2, “Methods of treating or preventing autoimmune diseases with 2,4-pyrimidinediamine compounds” (Rigel Pharmaceuticals, Inc., priority 2002, dated 2012).

The compounds below were run on Human Jurkat T-cells (clone N) (assay: Jurkat T-cell activation (anti-TCR, CD69 upregulation)). Conditions: not given.
Assay type: cell-based
How it was run: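 Jurkat cells in RPMI + 5% FBS preincubated with compound 1 h at 37 °C, then stimulated with anti-TCR C305 at 500 ng/ml for 20 h. CD69 surface expression stained with anti-CD69-APC and read by flow cytometry; IC50 versus solvent-only control.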

SMILES | IC50
Oc1cccc(Nc2nc(Nc3cc(Br)cc(C(F)(F)F)c3)ncc2F)c1 [Compound R926846] | > 10 µM
COC(=O)c1ccc(Cn2ncc3ccc(Nc4ncc(F)c(Nc5ccc6c(c5)OCCO6)n4)cc32)c(OC)c1 [Compound R935320] | > 10 µM
COC(=O)Cn1ncc2cc(Nc3ncc(F)c(Nc4ccc5c(c4)OCCO5)n3)ccc21 [Compound R935223] | 4.57 µM
O=C(COc1cccc(Nc2ncc(F)c(Nc3cccc(O)c3)n2)c1)N1CCNCC1 [Compound R926772] | 2.04 µM
N#CCOc1ccc(Nc2ncc(F)c(Nc3ccc4c(c3)OCCO4)n2)cc1 [Compound R926480] | > 10 µM
Oc1cccc(Nc2nc(Nc3ccc4oc(CN5CCNCC5)cc4c3)ncc2F)c1 [Compound R926770] | 0.891 µM
OCCn1ncc2cc(Nc3nc(Nc4cccc(O)c4)ncc3F)ccc21 [Compound R935259] | 3.46 µM
OCCCn1ncc2cc(Nc3ncc(F)c(Nc4ccc5c(c4)OCCO5)n3)ccc21 [Compound R935302] | 0.8 µM
NC(=O)COc1ccc(Nc2nc(Nc3cccc(O)c3)ncc2F)cc1 [Compound R945063] | 6.04 µM
CC(CO)Nc1cccc(Nc2ncc(F)c(Nc3cccc(NC(C)CO)c3)n2)c1 (stereo not shown) [Compound R950171] | 4.36 µM
Cc1noc(COc2ccc(Nc3ncc(F)c(Nc4ccc(OC(C)C)cc4)n3)cc2)n1 [Compound R935142] | 9.67 µM
CNC(=O)COc1cc(O)cc(Nc2ncc(F)c(Nc3cccc(O)c3)n2)c1 [Compound R926929] | 4 µM
Oc1cccc(Nc2ncc(F)c(Nc3cccc(O)c3)n2)c1 [Compound R926461] | 3.39 µM
CCOC(=O)c1ncn2c1COc1c(Nc3nc(Nc4cccc(OCC(=O)NC)c4)ncc3F)cccc1-2 [Compound R909265] | 12 µM
CC(C)Oc1ccc(Nc2nc(Nc3ccc(OCc4nc(-c5ccccc5)no4)cc3)ncc2F)cc1 [Compound R935135] | > 10 µM
CNC(=O)Cn1ncc2cc(Nc3ncc(F)c(Nc4ccc5c(c4)OCCO5)n3)ccc21 [Compound R935240] | 2.71 µM
CC(C)(C)c1cccc(Nc2nc(Nc3cccc(OCC(=O)O)c3)ncc2F)c1 [Compound R940280] | > 10 µM
CNC(=O)COc1cccc(Nc2ncc(F)c(Nc3cccc(C(C)=NO)c3)n2)c1 [Compound R950373] | 3.61 µM
CCOC(=O)C(C)(C)c1ccc(Nc2nc(Nc3ccc(OC(C)C)cc3)ncc2F)cc1 [Compound R935167] | > 10 µM
CCOC(=O)CCn1ncc2cc(Nc3ncc(F)c(Nc4ccc5c(c4)OCCO5)n3)ccc21 [Compound R935301] | 2.32 µM
COC(=O)COc1cccc(Nc2ncc(F)c(Nc3cccc(OCC(=O)OC)c3)n2)c1 [Compound R926255] | > 10 µM
CCOC(=O)COc1cccc(Nc2ncc(F)c(Nc3ccc4c(c3)C(OC)CCO4)n2)c1 (stereo not shown) [Compound R950294] | 9.79 µM
CC(C)Oc1ccc(Nc2nc(Nc3cccc(OCC(=O)O)c3)ncc2F)cc1 [Compound R926731] | > 10 µM
O=C(COc1ccc(Nc2nc(Nc3cccc(O)c3)ncc2Br)cc1)NCC1CC1 [Compound R925842] | > 10 µM
COC(=O)COc1cccc(Nc2ncc(F)c(Nc3ccc(OC(C)C)cc3)n2)c1 [Compound R945125] | > 10 µM

SMILES | IC50
Cc1ccc(Nc2ncc(F)c(Nc3ccc(C)c(O)c3)n2)cc1O [Compound R926341] | 3.68 µM
CNC(=O)COc1cccc(Nc2ncc(F)c(Nc3cccc([N+](=O)[O-])c3)n2)c1 [Compound R950261] | 17.4 µM
CCOC(=O)c1cnc(N[C@@H](Cc2ccccc2)C(=O)OCC)nc1N[C@@H](Cc1ccccc1)C(=O)OCC [Compound R926526] | > 10 µM
COC(=O)Cn1ncc2ccc(Nc3ncc(F)c(Nc4ccc5cnn(CC(=O)OC)c5c4)n3)cc21 [Compound R935205] | 10.7 µM
CNC(=O)COc1cccc(Nc2ncc(F)c(Nc3ccc(OC)c(CO)c3)n2)c1 [Compound R950386] | 11.4 µM
O=C(CNc1cccc(Nc2ncc(F)c(Nc3ccc4c(c3)OCCO4)n2)c1)N(CCO)CCO [Compound R950199] | 3.21 µM
Cn1cc2cc(Nc3ncc(F)c(Nc4ccc5c(c4)OCCO5)n3)ccc2n1 [Compound R935300] | 3.38 µM
OCCOc1ccc(Nc2ncc(F)c(Nc3ccc4c(c3)OCCCO4)n2)cc1 [Compound R935183] | 2.27 µM
CCOC(=O)COc1cccc(Nc2ncc(F)c(Nc3cc(OC)cc(OC)c3)n2)c1 [Compound R926795] | > 10 µM
O=C(O)COc1ccc(Nc2ncc(F)c(Nc3ccc(OCC(=O)O)cc3)n2)cc1 [Compound R926560] | > 10 µM
CNCc1cccc(Nc2nc(Nc3cccc(OCC(=O)NC)c3)ncc2F)c1 [Compound R940317] | 3.28 µM
COc1cc(Nc2nc(Nc3cccc(O)c3)ncc2F)c(OC)cc1Cl [Compound R926860] | > 10 µM
CNC(=O)COc1cccc(Nc2ncc(F)c(Nc3ccc(OC)nc3)n2)c1 [Compound R926886] | 1.14 µM
CNC(=O)Cn1ncc2ccc(Nc3nc(Nc4ccc5c(c4)OCCO5)ncc3F)cc21 [Compound R935225] | 7.42 µM
CNC(=O)COc1ccc(Nc2ncc(F)c(Nc3ccc4c(cnn4C)c3)n2)cc1 [Compound R935216] | 3.48 µM
CCOC(=O)C(C)(Oc1cccc(Nc2nc(Nc3ccc(OC(C)C)cc3)ncc2F)c1)C(=O)OCC [Compound R935187] | > 10 µM
Oc1cccc(Nc2nc(Nc3ccc4cn[nH]c4c3)ncc2F)c1 [Compound R935191] | 2.94 µM
Cc1cc(Nc2nc(Nc3cccc(OCC(=O)N4CCOCC4)c3)ncc2F)cc(C)c1O [Compound R940254] | 3.76 µM
COC(=O)C(C)Oc1ccc(Nc2ncc(F)c(Nc3ccc(OC(C)C(=O)OC)cc3)n2)cc1 (mixture of isomers) [Compound R926254] | > 10 µM
O=C(COc1cccc(Nc2ncc(F)c(Nc3ccc4c(c3)OCCO4)n2)c1)NCCO [Compound R926505] | 1.15 µM
CNC(=O)COc1cccc(Nc2ncc(F)c(Nc3ccc(OC)c(CN4CCOCC4)c3)n2)c1 [Compound R940314] | 7.03 µM
COC(=O)COc1cccc(Nc2ncc(F)c(Nc3ccc4c(c3)OCCO4)n2)c1 [Compound R945124] | 6.16 µM
Fc1cnc(Nc2ccc3c(c2)OCCO3)nc1Nc1ccc(OCc2nc(-c3ccccc3)no2)cc1 [Compound R935140] | 2.16 µM
CCOC(=O)COc1ccc(Nc2nc(Nc3ccc(OCC(=O)OCC)cc3)c(NC(=O)Nc3ccccc3)c(C(=O)OCC)n2)cc1 [Compound R926571] | > 10 µM
O=C(O)COc1ccc(Nc2ncc(F)c(Nc3ccc4c(c3)OCCO4)n2)cc1 [Compound R926238] | > 10 µM

Same assay, conditions: Homo sapiens

SMILES | IC50
CC(C)NC(=O)Oc1cccc(Nc2ncc(F)c(Nc3cccc(OC(=O)NC(C)C)c3)n2)c1 [Compound R926412] | 2.38 µM
O=[N+]([O-])c1cc(Nc2ccnc(Nc3ccc(F)c([N+](=O)[O-])c3)n2)ccc1F [Compound R950152] | 2.65 µM

Same assay, conditions: Homo sapiens, Jurkat

SMILES | IC50
CC(C)c1ccc(Nc2ncc(F)c(Nc3ccc4c(c3)OCCO4)n2)cc1 [Compound R926790] | > 10 µM
COc1ccc(-c2ccccc2)cc1Nc1ccnc(Nc2cc(-c3ccccc3)ccc2OC)n1 [Compound R925805] | > 10 µM
Fc1cc(Nc2ncc(F)c(Nc3ccc4c(c3)OCCO4)n2)cc(C(F)(F)F)c1 [Compound R926894] | > 10 µM
Nc1ccc(F)c(Nc2ncc(F)c(Nc3cc(N)ccc3F)n2)c1 [Compound R950158] | 21.4 µM
Oc1cccc(Nc2nc(Nc3cc(Cl)c(O)c(Cl)c3)ncc2F)c1 [Compound R926890] | 11.3 µM
COC(=O)c1cc2cc(Nc3nc(Nc4ccc5c(c4)OCCO5)ncc3F)ccc2o1 [Compound R926485] | > 10 µM
CC(C)(CO)c1ccc(Nc2nc(Nc3cccc(OCCO)c3)ncc2F)cc1 [Compound R935161] | 3.13 µM
N#Cc1cnc(Nc2ccc3c(c2)OCCO3)nc1Nc1ccc2c(c1)OCCO2 [Compound R925773] | 14.4 µM
CC(C)(C)c1ccc(Nc2nc(Nc3ccc4c(c3)CC(C(=O)O)O4)ncc2F)cc1 (stereo not shown) [Compound R926720] | > 10 µM
O=C(O)c1cc2cc(Nc3ncc(F)c(Nc4cccc(O)c4)n3)ccc2[nH]1 [Compound R926479] | > 10 µM
CCc1ccc(Nc2ncc(F)c(Nc3ccc4c(c3)OCCO4)n2)cc1 [Compound R926237] | > 10 µM
CCOc1cccc(Nc2ncc(F)c(Nc3cccc(OCC)c3)n2)c1 [Compound R926064] | > 10 µM
Oc1cccc(Nc2ncc(F)c(NCc3csc4ccccc34)n2)c1 [Compound R945146] | > 10 µM
Clc1cc(Nc2ccc3c(c2)OCCO3)nc(Nc2ccc3c(c2)OCCO3)n1 [Compound R926245] | 11.1 µM
Brc1cnc(Nc2ccccc2-c2ccccc2)nc1Nc1ccccc1-c1ccccc1 [Compound R925798] | > 10 µM
Fc1cnc(NCC2COc3ccccc3O2)nc1Nc1ccc2c(c1)OCCO2 (stereo not shown) [Compound R950206] | > 10 µM
Fc1cnc(Nc2ccc3c(c2)OCCO3)nc1NC1CCCCC1 [Compound R925794] | > 10 µM
Oc1cccc(Nc2ncc(F)c(Nc3ccc4[nH]ccc4c3)n2)c1 [Compound R926932] | 2.91 µM
Oc1cccc(Nc2ncc(F)c(NCc3csc4ccc(Cl)cc34)n2)c1 [Compound R926722] | > 10 µM
Oc1cccc(Nc2ncc(-c3ccc4c(c3)OCO4)c(Nc3cccc(O)c3)n2)c1 [Compound R925788] | 16.9 µM
OCCOc1ccc(Nc2ncc(F)c(Nc3ccc4oc(CO)cc4c3)n2)cc1 [Compound R935174] | 3.99 µM
